Data as given in patent EP3156406A1, “CRYSTALLINE FORMS OF RIBOCICLIB FREE BASE” (ratiopharm GmbH, priority 2015, dated 2017).
Converted amounts (≈) assume the structure as drawn. Blank lines part the entries; values can stand above or below the molecule they belong to.

Experiments:
Format in all cases: physicochemical
[1] = Long term stability of solid form at 40°C/75%r.h.
[2] = Solubility in aqueous solvents; conditions: for Solubility: 37°C
Description: Approx. 340 mg (exactly weighed) test substance was weighed into a glass vial, followed by addition of 2.5 ml solvent. A stirring bar was added, the vial was fixed in a block heater at 37°C and the suspension was stirred with approx. 250 rpm. After 15 min and 1 h, samples were withdrawn, filtered through a 0.2 µm disposable filter, 50 µl of the clear filtrate were diluted with 950 µl DMSO and 2 µl thereof were analyzed by HPLC/UV.

[3] = Dynamic vapor sorption - stability of solid form; conditions: 25°C, humidity cycles 0-95% RH
Description: Vapour sorption experiments were performed in the instrument SPSx-1µ (Projekt Messtechnik, Ulm, Germany) at temperature of 25°C and the humidity cycles as shown below. Humidity cycle conditions: [table]

Compound: CN(C)C(=O)c1cc2cnc(Nc3ccc(N4CCNCC4)cn3)nc2n1C1CCCC1 [Form 1, 7-cyclopentyl-N,N-dimethyl-2-((5-(piperazin-1-yl)pyridin-2-yl)amino)-7H-pyrrolo[2,3-d]pyrimidine-6-carboxamide]
- Long term stability at 40°C/75%r.h. (4 weeks) [1]: stable
- Long term stability at 40°C/75%r.h. (12 weeks) [1]: stable
- Solubility ([2]; 0.01 N HCl ∼pH2.2, 15 min, listed as RBC free base form 1): 3800 µg/mL (≈ 8.74 mM)
- Solubility ([2]; 0.01 N HCl ∼pH2.2, 1 h, listed as RBC free base form 1): 3400 µg/mL (≈ 7.82 mM)
- Solubility ([2]; 20mM NaAc pH4.5, 1 h, listed as RBC free base form 1): 14200 µg/mL (≈ 32.7 mM)
- solubility at 15 min ([2]; 20 mM sodium acetate buffer, 37 °C, pH 4.5, aqueous buffer, thermodynamic from solid, 20mM NaAc pH4.5, 15 min): 14200 µg/mL (≈ 32.7 mM)
- Solubility ([2]; 50mM KH2PO4 pH6.5 + 2%TPGS, 15 min, listed as RBC free base form 1): 3600 µg/mL
- Solubility ([2]; 50mM KH2PO4 pH6.5 + 2%TPGS, 1 h, listed as RBC free base form 1): 1500 µg/mL
- Solubility ([2]; 50mM KH2PO4 pH6.8, 15 min, listed as RBC free base form 1): 1500 µg/mL (≈ 3.45 mM)
- Solubility ([2]; 50mM KH2PO4 pH6.8, 1 h, listed as RBC free base form 1): 1600 µg/mL (≈ 3.68 mM)
- Stability of solid form (in DVS) [3]: stable

Compound: CN(C)C(=O)c1cc2cnc(Nc3ccc(N4CCNCC4)cn3)nc2n1C1CCCC1 [Form 4, 7-cyclopentyl-N,N-dimethyl-2-((5-(piperazin-1-yl)pyridin-2-yl)amino)-7H-pyrrolo[2,3-d]pyrimidine-6-carboxamide, reference compound]
- Stability of solid form (in DVS) [3]: Unstable at RT and ambient conditions

Compound: CN(C)C(=O)c1cc2cnc(Nc3ccc(N4CCNCC4)cn3)nc2n1C1CCCC1 [Form 6, 7-cyclopentyl-N,N-dimethyl-2-((5-(piperazin-1-yl)pyridin-2-yl)amino)-7H-pyrrolo[2,3-d]pyrimidine-6-carboxamide]
- Long term stability at 40°C/75%r.h. (4 weeks) [1]: stable
- Long term stability at 40°C/75%r.h. (12 weeks) [1]: stable
- Solubility ([2]; 0.01 N HCl ∼pH2.2, 15 min, listed as RBC free base form 6): 400 µg/mL (≈ 0.92 mM)
- Solubility ([2]; 0.01 N HCl ∼pH2.2, 1 h, listed as RBC free base form 6): 200 µg/mL (≈ 0.46 mM)
- Solubility ([2]; 20mM NaAc pH4.5, 15 min, listed as RBC free base form 6): 12200 µg/mL (≈ 28.1 mM)
- Solubility ([2]; 20mM NaAc pH4.5, 1 h, listed as RBC free base form 6): 9700 µg/mL (≈ 22.3 mM)
- Solubility ([2]; 50mM KH2PO4 pH6.5 + 2%TPGS, 15 min, listed as RBC free base form 6): 2800 µg/mL
- Solubility ([2]; 50mM KH2PO4 pH6.5 + 2%TPGS, 1 h, listed as RBC free base form 6): 2400 µg/mL
- Solubility ([2]; 50mM KH2PO4 pH6.8, 15 min, listed as RBC free base form 6): 1200 µg/mL (≈ 2.76 mM)
- Solubility ([2]; 50mM KH2PO4 pH6.8, 1 h, listed as RBC free base form 6): 500 µg/mL (≈ 1.15 mM)
- Stability of solid form (in DVS) [3]: stable

The next lines start with the values.

- Long term stability at 40°C/75%r.h. (4 weeks) [1]: stable
- Long term stability at 40°C/75%r.h. (12 weeks) [1]: stable
- Solubility ([2]; 0.01 N HCl ∼pH2.2, 15 min, listed as RBC free base form 7): 3100 µg/mL (≈ 7.13 mM)
- Solubility ([2]; 0.01 N HCl ∼pH2.2, 1 h, listed as RBC free base form 7): 3000 µg/mL (≈ 6.9 mM)
- Solubility ([2]; 20mM NaAc pH4.5, 15 min, listed as RBC free base form 7): 11300 µg/mL (≈ 26 mM)
- solubility at 1 h ([2]; 20 mM sodium acetate buffer, 37 °C, pH 4.5, aqueous buffer, thermodynamic from solid, 20mM NaAc pH4.5, 1 h): 11500 µg/mL (≈ 26.5 mM)
- Solubility ([2]; 50mM KH2PO4 pH6.5 + 2%TPGS, 15 min, listed as RBC free base form 7): 800 µg/mL
- Solubility ([2]; 50mM KH2PO4 pH6.5 + 2%TPGS, 1 h, listed as RBC free base form 7): 800 µg/mL
- Solubility ([2]; 50mM KH2PO4 pH6.8, 15 min, listed as RBC free base form 7): 500 µg/mL (≈ 1.15 mM)
- Solubility ([2]; 50mM KH2PO4 pH6.8, 1 h, listed as RBC free base form 7): 1100 µg/mL (≈ 2.53 mM)
- Stability of solid form (in DVS) [3]: stable
Compound: CN(C)C(=O)c1cc2cnc(Nc3ccc(N4CCNCC4)cn3)nc2n1C1CCCC1 [Form 7, 7-cyclopentyl-N,N-dimethyl-2-((5-(piperazin-1-yl)pyridin-2-yl)amino)-7H-pyrrolo[2,3-d]pyrimidine-6-carboxamide]

- Long term stability at 40°C/75%r.h. (4 weeks) [1]: stable
- Long term stability at 40°C/75%r.h. (12 weeks) [1]: stable
- Solubility ([2]; 0.01 N HCl ∼pH2.2, 15 min, listed as RBC free base form 8): 4000 µg/mL (≈ 9.2 mM)
- Solubility ([2]; 0.01 N HCl ∼pH2.2, 1 h, listed as RBC free base form 8): 1000 µg/mL (≈ 2.3 mM)
- Solubility ([2]; 50mM KH2PO4 pH6.5 + 2%TPGS, 15 min, listed as RBC free base form 8): 3900 µg/mL
- Solubility ([2]; 50mM KH2PO4 pH6.5 + 2%TPGS, 1 h, listed as RBC free base form 8): 900 µg/mL
Compound: CN(C)C(=O)c1cc2cnc(Nc3ccc(N4CCNCC4)cn3)nc2n1C1CCCC1 [Form 8, 7-cyclopentyl-N,N-dimethyl-2-((5-(piperazin-1-yl)pyridin-2-yl)amino)-7H-pyrrolo[2,3-d]pyrimidine-6-carboxamide]
